The source of these data is ChEMBL document CHEMBL3864162, “Discovery of potent inhibitors of the lysophospholipase autotaxin” (Bioorg Med Chem Lett, 2016).

The target in data set [1] is T1, Autotaxin (Homo sapiens, UniProt Q13822). Briefly: Inhibition of ATX in human plasma assessed as decrease in hydrolysis of lysophosphatidylcholine by measuring choline release after 24 hrs by horseradish peroxidase/choline oxidase-coupled assay. It is filed as cell-free.
Data set [2] is described as follows: Volume of distribution at steady state in CD1 mouse at 1 mg/kg, iv administered as bolus dose measured up to 7 hrs by UPLC/MS/MS spectrometry analysis. As to conditions: in vivo, read-out: Vdss. It is filed as ADME, organism-based.
The nature of data set [3]: Blood clearance in CD1 mouse at 1 mg/kg, iv administered as bolus dose measured up to 7 hrs by UPLC/MS/MS spectrometry analysis. The format is ADME, organism-based.
Data set [4] can be described thus: Half life in CD1 mouse blood at 1 mg/kg, iv administered as bolus dose measured up to 7 hrs by UPLC/MS/MS spectrometry analysis. It is filed as ADME, organism-based.
Data set [5] can be described thus: Intrinsic clearance in CD1 mouse liver microsomes assessed per gram of liver at 1 uM in presence of NADPH regenerating system measured up to 45 mins by UPLC/MS/MS analysis. It is filed as ADME. As to conditions: 0.75 h. Background: Microsomes from liver hold many membrane-bound enzymes, among them those of drug oxidation.
In data set [6] the target is T1, Autotaxin. Briefly: Inhibition of human recombinant ATX using Rac-1-Palmitoyl-glycero-3-phosphocholine as substrate incubated for 2 hrs using ADHP fluorogenic peroxidase substrate by horseradish peroxidase/choline oxidase-coupled assay.
Data set [7] in a line: Volume of distribution at steady state in CD1 mouse at 0.5 mg/kg, iv administered as bolus dose measured up to 7 hrs by UPLC/MS/MS spectrometry analysis. The format is ADME, organism-based. As to conditions: in vivo, read-out: Vdss.
A short description of data set [8]: Half life in CD1 mouse blood at 0.5 mg/kg, iv administered as bolus dose measured up to 7 hrs by UPLC/MS/MS spectrometry analysis. It is filed as ADME, organism-based.
Data set [9] is described as follows: Blood clearance in CD1 mouse at 0.5 mg/kg, iv administered as bolus dose measured up to 7 hrs by UPLC/MS/MS spectrometry analysis. The format is ADME, organism-based.
Data set [10] is described as follows: Intrinsic clearance in human liver microsomes assessed per gram of liver at 1 uM in presence of NADPH regenerating system measured up to 45 mins by UPLC/MS/MS analysis. It is filed as ADME. The settings on record: 0.75 h.
The target of data set [11] is T1, Autotaxin. The data set is described as follows: Inhibition of human recombinant ATX using FS-3 as substrate incubated in dark for 45 mins by fluorescence assay.

By IC50 is commonly meant the concentration needed to halve the response being measured. In general, clearance refers to a measure of how efficiently the substance is removed, as volume per time. A high value points to a high capacity for elimination. By half-life is commonly meant the time needed for the level to fall by half in the phase considered. A low value points to fast loss.

As for `C[C@H](NC(=O)NCc1nc2cccnc2n1Cc1ccc(F)cc1)c1ccc(Cl)cc1`, the IC50 at Autotaxin [1] was 414 nM.

Take `COc1ccc(Cn2c(CCC(=O)N[C@H](C)c3ccccc3)nc3cccnc32)cc1`: the IC50 on Autotaxin [1] was determined as 8500 nM.

`C[C@H](NC(=O)CCc1nc2ccncc2n1Cc1ccc(OC(F)(F)F)cc1)c1ccc(Cl)cc1`: the half-inhibitory concentration (IC50) at Autotaxin [1] was determined as 34 nM. For the same compound, the Vd in data set [2] is 0.2 L/kg. The compound further had a clearance in data set [3] of 73 mL/min/kg. The half-life in [4] is 8.4 min. Besides, the CLH in data set [5] worked out at 18.1 mL/min/g.

On to `COc1ccc(Cn2c(CCC(=O)N[C@@H](C)c3ccc(Cl)cc3)nc3cccnc32)cc1`, for which the IC50 at Autotaxin [1] came out at 215 nM.

With `C[C@H](NC(=O)CCc1nc2ccncc2n1Cc1ccc(OC(F)(F)F)cc1)c1ccc(F)cc1`, the IC50 on Autotaxin [1] was found to be 32 nM.

Consider `C[C@H](NC(=O)OCc1nc2cccnc2n1Cc1ccc(F)cc1)c1ccc(F)cc1`, for which the IC50 on Autotaxin [1] is 3290 nM; on Autotaxin [6], 366 nM. Also, the CLH in data set [5] was found to be 21.8 mL/min/g.

For `O=C(CCc1nc2cccnc2n1Cc1ccccc1)NCc1ccccn1`, at Autotaxin [6], the IC50 was 11000 nM.

Regarding `C[C@H](NC(=O)COc1nc2cccnc2n1Cc1ccc(OC(F)(F)F)cc1)c1ccc(Cl)cc1`, the Vd in [7] worked out at 0.4 L/kg. Besides, the IC50 at Autotaxin [1] amounted to 99 nM. The half-life in data set [8] is 12 min. The compound also showed a clearance in [9] of 78 mL/min/kg. For the same compound, the CLH in data set [5] was 10.8 mL/min/g.

Turning to `O=C(CCc1nc2cccnc2n1Cc1ccccc1)NCc1ccccc1`, the 50% inhibitory concentration (IC50) on Autotaxin [6] is 1240 nM.

In the case of `O=C(CCc1nc2cccnc2n1Cc1ccc(F)cc1)N[C@@H](CO)c1ccc(Cl)cc1`, the half-maximal inhibitory concentration (IC50) came to 26 nM on Autotaxin [1] and 5 nM at Autotaxin [6]. Besides, the Vd in data set [2] was 0.2 L/kg. In addition, the clearance in data set [3] is 73 mL/min/kg. This compound also had a half-life in data set [4] of 9.6 min. For the same compound, the CLH in [5] came out at 4.4 mL/min/g.

Regarding `O=C(CCc1nc2cccnc2n1Cc1ccccc1)NCc1ccc(F)cc1`, the values for the CLH in data set [5] and in data set [10] were 23.9 mL/min/g and 41.2 mL/min/g, respectively.

Regarding `C[C@H](NC(=O)C[S+]([O-])c1nc2cccnc2n1Cc1ccc(OC(F)(F)F)cc1)c1ccc(F)cc1` (stereo in doubt; 26b), the 50% inhibitory concentration (IC50) was found to be 207 nM at Autotaxin [1] and 178 nM at Autotaxin [6]. Further, the CLH in data set [5] came to 19.8 mL/min/g.

As to `O=C(CCc1nc2cccnc2n1Cc1ccccc1)NCc1ccsc1`, the half-inhibitory concentration (IC50) on Autotaxin [6] was determined as 2430 nM.

As for `COc1ccc(CNC(=O)CCc2nc3cccnc3n2Cc2ccccc2)cc1`, the half-inhibitory concentration (IC50) on Autotaxin [1] amounted to 8870 nM; on Autotaxin [11], 40 nM.

On to `C[C@H](NC(=O)CCc1nc2cccnc2n1Cc1ccc(C(F)(F)F)cc1)c1ccc(Cl)cc1`, for which the IC50 on Autotaxin [1] turned out to be 16 nM. Also, the Vd in data set [2] was determined as 0.88 L/kg. Moreover, the clearance in data set [3] came out at 72 mL/min/kg. The half-life in [4] was 19.8 min. In addition, the CLH in data set [5] is 26.5 mL/min/g.

As to `C[C@H](NC(=O)CCc1nc2cccnc2n1Cc1ccc(OC(F)F)cc1)c1ccc(Cl)cc1`, the values for the half-maximal inhibitory concentration (IC50) at Autotaxin [1] and at Autotaxin [6] were 44 nM and 2 nM, respectively. For the same compound, the Vd in [2] turned out to be 0.4 L/kg. In data set [3], the clearance is 62 mL/min/kg. Also, the half-life in data set [4] is 22.2 min. Moreover, in data set [5], the CLH stood at 52.8 mL/min/g.

Consider `O=C(CCc1nc2cccnc2n1Cc1ccccc1)NCc1ccccc1F`, for which the IC50 at Autotaxin [6] is 1250 nM.

Take `COc1ccc(Cn2c(CCC(=O)N[C@@H](C)c3ccccc3)nc3cccnc32)cc1`: in [7], the Vd was 0.19 L/kg. Further, the IC50 on Autotaxin [1] worked out at 318 nM. The compound also had a half-life in data set [8] of 10.2 min. Also, the clearance in [9] came out at 75 mL/min/kg. Also, the CLH in data set [5] amounted to 35 mL/min/g; in data set [10], 21.4 mL/min/g.

On to `C[C@H](NC(=O)NCc1nc2cccnc2n1Cc1ccc(F)cc1)c1ccc(F)cc1`, for which the concentration for half-maximal inhibition (IC50) at Autotaxin [1] came to 1050 nM. Also, the Vd in data set [2] was found to be 0.3 L/kg. This compound had a clearance in data set [3] of 67 mL/min/kg. In addition, the half-life in [4] was 9 min. In [5], the CLH was found to be 10 mL/min/g.

For the compound `COc1cccc(CNC(=O)CCc2nc3cccnc3n2Cc2ccccc2)c1`, the IC50 on Autotaxin [6] is 2970 nM.

For the compound `O=C(CCc1nc2cccnc2n1Cc1ccccc1)NCCc1ccccc1`, the IC50 at Autotaxin [6] was 3440 nM.

Take `C[C@H](NC(=O)C[S+]([O-])c1nc2cccnc2n1Cc1ccc(OC(F)(F)F)cc1)c1ccc(F)cc1` (stereo in doubt; 26a): the IC50 was determined as 178 nM at Autotaxin [1] and 10 nM on Autotaxin [6]. Besides, the Vd in [2] is 0.2 L/kg. Further, the clearance in data set [3] was 82 mL/min/kg. For the same compound, the half-life in [4] is 13.2 min. Moreover, in [5], the CLH is 28.6 mL/min/g.

Turning to `C[C@H](NC(=O)CSc1nc2cccnc2n1Cc1ccc(OC(F)(F)F)cc1)c1ccc(F)cc1`, the half-maximal inhibitory concentration (IC50) at Autotaxin [1] was 19 nM. The Vd in [2] was found to be 0.3 L/kg. In data set [3], this compound yielded a clearance of 81 mL/min/kg. Besides, the half-life in data set [4] is 12 min. Moreover, the CLH in data set [5] amounted to 71.5 mL/min/g.

As to `O=C(CCc1nc2cccnc2n1Cc1ccccc1)NCC1CCCCC1`, the half-maximal inhibitory concentration (IC50) is 9700 nM on Autotaxin [1] and 444 nM at Autotaxin [6]. The CLH in [5] came to 30.8 mL/min/g; in data set [10] it was 17.4 mL/min/g.

As to `C[C@H](NC(=O)CCc1nc2ccncc2n1Cc1ccc(F)cc1)c1ccc(F)cc1`, on Autotaxin [1], the half-inhibitory concentration (IC50) is 333 nM.

Take `CS(=O)(=O)c1ccc(CNC(=O)CCc2nc3cccnc3n2Cc2ccccc2)cc1`: the IC50 on Autotaxin [6] is 6770 nM.

As for `C[C@H](NC(=O)CCc1nc2cccnc2n1Cc1ccc(F)cc1)c1ccc(F)cc1`, the IC50 on Autotaxin [1] turned out to be 444 nM.

`C[C@H](NC(=O)CCc1nc2cccnc2n1Cc1ccccc1)c1ccccc1`: the half-maximal inhibitory concentration (IC50) on Autotaxin [1] was determined as 288 nM. In addition, the CLH is 21.4 mL/min/g in data set [5] and 62 mL/min/g in data set [10].

In the case of `O=C(CCc1nc2cccnc2n1Cc1ccccc1)NCc1cccc(F)c1`, the IC50 on Autotaxin [6] is 1250 nM.

As to `C[C@H](NC(=O)COc1nc2cccnc2n1Cc1ccc(F)cc1)c1ccc(F)cc1`, the IC50 on Autotaxin [1] was 821 nM. Further, the CLH in data set [5] was 15.6 mL/min/g.

For the compound `O=C(CCc1nc2cccnc2n1Cc1ccccc1)NCc1ccc(Cl)cc1`, the IC50 on Autotaxin [1] was 5800 nM. Moreover, in [5], the CLH is 15.3 mL/min/g.
